# Reference: PubChem BioAssay AID248 (DTP/NCI, 2004)
# Several values for one entry are separate records, joined by “and”; a condition that tells them apart may be missing. Equal entries are not always repeated. Inconclusive results and toxic doses are left out. Peptide text beside a SMILES is read from it. * marks the point of attachment. Boc = CC(C)(C)OC(=O)*
# Test system: L1210 leukemia ip in BDF1 mice, survival T/C
# Test: NCI In Vivo Anticancer Drug Screen. Data for tumor model L1210 Leukemia (intraperitoneal) in B6D2F1 (BDF1) mice
# Settings: endpoint: mean survival time, higher = longer survival
# Outline: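 Transplanted-tumor mice were given test agent; controls received vehicle only. Survival readings from the two groups were divided (treated over control).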
# [1] = dose: 100.0 mg/kg/injection, schedule: Q01DX001 (ip), vehicle: saline
# [2] = dose: 200.0 mg/kg/injection, schedule: Q01DX001 (ip), vehicle: saline
# [3] = dose: 400.0 mg/kg/injection, schedule: Q01DX001 (ip), vehicle: saline
# [4] = dose: 100.0 mg/kg/injection, schedule: Q04DX002 (ip), vehicle: Klucel (hydroxypropylcellulose) (HPC)
# [5] = dose: 200.0 mg/kg/injection, schedule: Q04DX002 (ip), vehicle: Klucel (hydroxypropylcellulose) (HPC)
# [6] = dose: 400.0 mg/kg/injection, schedule: Q04DX002 (ip), vehicle: Klucel (hydroxypropylcellulose) (HPC)
# [7] = dose: 100.0 mg/kg/injection, schedule: Q04DX003 (ip), vehicle: saline
# [8] = dose: 100.0 mg/kg/injection, schedule: Q01DX009 (ip), vehicle: saline
# [9] = dose: 200.0 mg/kg/injection, schedule: Q01DX009 (ip), vehicle: saline
# [10] = dose: 100.0 mg/kg/injection, schedule: Q01DX009 (ip), vehicle: Klucel (hydroxypropylcellulose) (HPC)
# [11] = dose: 200.0 mg/kg/injection, schedule: Q01DX009 (ip), vehicle: Klucel (hydroxypropylcellulose) (HPC)
# [12] = dose: 400.0 mg/kg/injection, schedule: Q01DX009 (ip), vehicle: Klucel (hydroxypropylcellulose) (HPC)
# [13] = dose: 100.0 mg/kg/injection, schedule: Q01DX009 (ip), vehicle: saline with Tween-80
# [14] = dose: 200.0 mg/kg/injection, schedule: Q01DX009 (ip), vehicle: saline with Tween-80
# [15] = dose: 400.0 mg/kg/injection, schedule: Q01DX009 (ip), vehicle: saline with Tween-80
# [16] = dose: 100.0 mg/kg/injection, schedule: Q01DX001 (ip), vehicle: carboxymethylcellulose (CMC)
# [17] = dose: 200.0 mg/kg/injection, schedule: Q01DX001 (ip), vehicle: carboxymethylcellulose (CMC)
# [18] = dose: 400.0 mg/kg/injection, schedule: Q01DX001 (ip), vehicle: carboxymethylcellulose (CMC)
# [19] = dose: 100.0 mg/kg/injection, schedule: Q01DX001 (ip), vehicle: saline with Tween-80
# [20] = dose: 200.0 mg/kg/injection, schedule: Q01DX001 (ip), vehicle: saline with Tween-80
# [21] = dose: 400.0 mg/kg/injection, schedule: Q01DX001 (ip), vehicle: saline with Tween-80
# [22] = dose: 50.0 mg/kg/injection, schedule: Q01DX009 (ip), vehicle: saline
smiles,measurement,setting,value
C=CCSc1ccccc1Cl,T/C,[1],100 % of control
same,T/C,[2],103 % of control
same,T/C,[3],103 % of control
COC(=O)C(Cc1ccccc1)NC(=O)C(Cc1ccccc1)NC(=O)OC(C)(C)C (stereo not drawn) (Boc-Phe-Phe-OMe; configuration not given here),T/C,[4],94 % of control
same,T/C,[5],101 % of control
same,T/C,[6],108 % of control
CCN(CC)CCN1CC(=O)Nc2cc(Cl)ccc21,T/C,"dose: 25.0 mg/kg/injection, schedule: Q04DX003 (ip), vehicle: saline",94 % of control
same,T/C,"dose: 50.0 mg/kg/injection, schedule: Q04DX003 (ip), vehicle: saline",99 % of control
same,T/C,[7],98 % of control and 87 % of control
CC(C)(C)C(=O)CC(=O)C(C)(C)C.CC(C)(C)C(=O)CC(=O)C(C)(C)C.CC(C)(C)C(=O)CC(=O)C(C)(C)C.[Sm],T/C,"dose: 100.0 mg/kg/injection, schedule: Q01DX005 (ip), vehicle: saline",112 % of control
same,T/C,[8],106 % of control
same,T/C,"dose: 100.0 mg/kg/injection, schedule: Q04DX002 (ip), vehicle: saline",92 % of control
same,T/C,"dose: 200.0 mg/kg/injection, schedule: Q01DX005 (ip), vehicle: saline",109 % of control
same,T/C,[9],103 % of control
same,T/C,"dose: 200.0 mg/kg/injection, schedule: Q04DX002 (ip), vehicle: saline",95 % of control
same,T/C,"dose: 400.0 mg/kg/injection, schedule: Q01DX005 (ip), vehicle: saline",98 % of control
same,T/C,"dose: 400.0 mg/kg/injection, schedule: Q01DX009 (ip), vehicle: saline",98 % of control
same,T/C,"dose: 400.0 mg/kg/injection, schedule: Q04DX002 (ip), vehicle: saline",103 % of control
O=C1c2ccccc2C(=O)N1CNc1ccccc1/C(=N/O)c1ccccc1,T/C,"dose: 87.5 mg/kg/injection, schedule: Q01DX009 (ip), vehicle: Klucel (hydroxypropylcellulose) (HPC)",95 % of control
same,T/C,"dose: 175.0 mg/kg/injection, schedule: Q01DX009 (ip), vehicle: Klucel (hydroxypropylcellulose) (HPC)",93 % of control
same,T/C,"dose: 350.0 mg/kg/injection, schedule: Q01DX009 (ip), vehicle: Klucel (hydroxypropylcellulose) (HPC)",93 % of control
CC(=O)Oc1ccc2c(c1)C=CC1C2CCC2(C)/C(=N/NC(N)=S)CCC12 (stereo not given),T/C,[4],100 % of control
same,T/C,[5],90 % of control
same,T/C,[6],116 % of control
Clc1ccc(C2OCCO2)cc1,T/C,[10],94 % of control
same,T/C,[11],95 % of control
same,T/C,[12],107 % of control
CC(=O)OCOC(COC(C)=O)C1OCOC(COC(C)=O)C1OCOC(C)=O (stereo not given),T/C,"dose: 100.0 mg/kg/injection, schedule: Q04DX002 (ip), vehicle: saline with Tween-80",100 % of control
same,T/C,"dose: 200.0 mg/kg/injection, schedule: Q04DX002 (ip), vehicle: saline with Tween-80",100 % of control
same,T/C,"dose: 400.0 mg/kg/injection, schedule: Q04DX002 (ip), vehicle: saline with Tween-80",100 % of control
CCOC(=O)CNC(=O)Nc1ccc(OC)cc1,T/C,[13],100 % of control
same,T/C,[14],93 % of control
same,T/C,[15],100 % of control
OC(C[n+]1ccccc1)c1c[nH]c2ccccc12 (stereo not given),T/C,"dose: 75.0 mg/kg/injection, schedule: Q01DX001 (ip), vehicle: other",107 % of control
O=c1ccc2cc(Br)ccc2o1,T/C,"dose: 100.0 mg/kg/injection, schedule: Q04DX003 (ip), vehicle: Klucel (hydroxypropylcellulose) (HPC)",97 % of control
same,T/C,"dose: 200.0 mg/kg/injection, schedule: Q04DX003 (ip), vehicle: Klucel (hydroxypropylcellulose) (HPC)",95 % of control
same,T/C,"dose: 400.0 mg/kg/injection, schedule: Q04DX003 (ip), vehicle: Klucel (hydroxypropylcellulose) (HPC)",97 % of control
CCN(CC)CCNCc1ccccc1,T/C,"dose: 25.0 mg/kg/injection, schedule: Q01DX003 (ip), vehicle: saline",99 % of control
same,T/C,"dose: 50.0 mg/kg/injection, schedule: Q01DX003 (ip), vehicle: saline",97 % of control
same,T/C,"dose: 75.0 mg/kg/injection, schedule: Q01DX003 (ip), vehicle: saline",99 % of control
same,T/C,"dose: 75.0 mg/kg/injection, schedule: Q04DX003 (ip), vehicle: saline",97 % of control
CCCCCCCCNNC(=O)c1ccccc1,T/C,[16],95 % of control
same,T/C,[17],97 % of control
same,T/C,[18],92 % of control
CNc1nc2nc[nH]c2c(=S)n1C,T/C,[1],103 % of control
same,T/C,[2],100 % of control
CC(=O)Nc1cc(C(=O)Nc2ccc(C3=NCCN3)cc2)ccc1C(=O)Nc1ccc(C2=NCCN2)cc1,T/C,"dose: 7.5 mg/kg/injection, schedule: Q01DX Z (oral), vehicle: saline",103 % of control
same,T/C,"dose: 15.0 mg/kg/injection, schedule: Q01DX Z (ip), vehicle: saline",271 % of control
same,T/C,"dose: 15.0 mg/kg/injection, schedule: Q01DX Z (oral), vehicle: saline",105 % of control
same,T/C,"dose: 30.0 mg/kg/injection, schedule: Q01DX Z (oral), vehicle: saline",104 % of control
same,T/C,"dose: 60.0 mg/kg/injection, schedule: Q01DX Z (oral), vehicle: saline",105 % of control
same,T/C,"dose: 62.5 mg/kg/injection, schedule: Q## X009 (oral), vehicle: saline",97 % of control
same,T/C,"dose: 75.0 mg/kg/injection, schedule: Q01DX Z (oral), vehicle: saline",90 % of control
same,T/C,"dose: 125.0 mg/kg/injection, schedule: Q## X009 (oral), vehicle: saline",97 % of control
same,T/C,"dose: 150.0 mg/kg/injection, schedule: Q01DX Z (oral), vehicle: saline",86 % of control
same,T/C,"dose: 500.0 mg/kg/injection, schedule: Q## X009 (oral), vehicle: saline",101 % of control
O=C(Nc1ccccc1)Nc1ccc([N+](=O)[O-])cc1[N+](=O)[O-],T/C,[19],93 % of control
same,T/C,"dose: 100.0 mg/kg/injection, schedule: Q04DX003 (ip), vehicle: saline with Tween-80",92 % of control
same,T/C,[20],92 % of control
same,T/C,"dose: 200.0 mg/kg/injection, schedule: Q04DX003 (ip), vehicle: saline with Tween-80",93 % of control
same,T/C,[21],98 % of control
O=C1c2cc([N+](=O)[O-])ccc2CCC1C(O)(C(F)(F)F)C(F)(F)F (stereo not given),T/C,[19],100 % of control
same,T/C,[20],102 % of control
same,T/C,[21],100 % of control
CC(=O)Nc1ccc(SC(Sc2ccc(NC(C)=O)cc2)c2ccccc2)cc1,T/C,[1],92 % of control
same,T/C,[2],92 % of control
same,T/C,[3],92 % of control
c1nc(N2CC2)c2cnn(C3CCCCO3)c2n1 (stereo not given),T/C,"dose: 50.0 mg/kg/injection, schedule: Q01DX001 (ip), vehicle: carboxymethylcellulose (CMC)",97 % of control
same,T/C,[22],102 % of control
same,T/C,[16],103 % of control
same,T/C,[8],113 % of control
same,T/C,[7],100 % of control
same,T/C,[17],106 % of control
same,T/C,[9],112 % of control
same,T/C,"dose: 200.0 mg/kg/injection, schedule: Q04DX003 (ip), vehicle: saline",97 % of control
same,T/C,[18],103 % of control
CCCN(C(=O)N([Si](C)(C)C)S(=O)(=O)c1ccc(Cl)cc1)[Si](C)(C)C,T/C,[22],103 % of control
same,T/C,[8],96 % of control
IC12CC3CC(CC(C3)C1)C2,T/C,[13],93 % of control
same,T/C,[14],87 % of control
same,T/C,[15],97 % of control
CCOC1(OCC)CCS(=O)(=O)C1c1ccccc1 (stereo not given),T/C,"dose: 100.0 mg/kg/injection, schedule: Q01DX001 (ip), vehicle: acetone",104 % of control
same,T/C,"dose: 100.0 mg/kg/injection, schedule: Q01DX009 (ip), vehicle: acetone",98 % of control
same,T/C,"dose: 200.0 mg/kg/injection, schedule: Q01DX001 (ip), vehicle: acetone",98 % of control
same,T/C,"dose: 200.0 mg/kg/injection, schedule: Q01DX009 (ip), vehicle: acetone",104 % of control
same,T/C,"dose: 400.0 mg/kg/injection, schedule: Q01DX001 (ip), vehicle: acetone",96 % of control
same,T/C,"dose: 400.0 mg/kg/injection, schedule: Q01DX009 (ip), vehicle: acetone",100 % of control
O=C(COc1ccc(Cl)cc1)NCCc1ccccc1,T/C,[10],97 % of control
same,T/C,[11],92 % of control
same,T/C,[12],98 % of control
